# Test results as given in article PMC2798733 (Bioorganic & medicinal chemistry, 2008).
# Key:
# [1] = target: T1, rat TRPV1 (Rattus norvegicus, UniProt O35433); experiment: biochemical; type: binding
# [2] = target: T1, rat TRPV1; details: for decrease in agonism on replacing or removing the 3-methoxy group of compound 1: comparator not given
# [3] = tested on: TRPV1; details: cited from earlier work
# [4] = cited from earlier work
# [5] = tested on: transient receptor potential vanilloid 1 (TRPV1) channel; details: cited from earlier work
# T1 sequence (O35433 whole entry): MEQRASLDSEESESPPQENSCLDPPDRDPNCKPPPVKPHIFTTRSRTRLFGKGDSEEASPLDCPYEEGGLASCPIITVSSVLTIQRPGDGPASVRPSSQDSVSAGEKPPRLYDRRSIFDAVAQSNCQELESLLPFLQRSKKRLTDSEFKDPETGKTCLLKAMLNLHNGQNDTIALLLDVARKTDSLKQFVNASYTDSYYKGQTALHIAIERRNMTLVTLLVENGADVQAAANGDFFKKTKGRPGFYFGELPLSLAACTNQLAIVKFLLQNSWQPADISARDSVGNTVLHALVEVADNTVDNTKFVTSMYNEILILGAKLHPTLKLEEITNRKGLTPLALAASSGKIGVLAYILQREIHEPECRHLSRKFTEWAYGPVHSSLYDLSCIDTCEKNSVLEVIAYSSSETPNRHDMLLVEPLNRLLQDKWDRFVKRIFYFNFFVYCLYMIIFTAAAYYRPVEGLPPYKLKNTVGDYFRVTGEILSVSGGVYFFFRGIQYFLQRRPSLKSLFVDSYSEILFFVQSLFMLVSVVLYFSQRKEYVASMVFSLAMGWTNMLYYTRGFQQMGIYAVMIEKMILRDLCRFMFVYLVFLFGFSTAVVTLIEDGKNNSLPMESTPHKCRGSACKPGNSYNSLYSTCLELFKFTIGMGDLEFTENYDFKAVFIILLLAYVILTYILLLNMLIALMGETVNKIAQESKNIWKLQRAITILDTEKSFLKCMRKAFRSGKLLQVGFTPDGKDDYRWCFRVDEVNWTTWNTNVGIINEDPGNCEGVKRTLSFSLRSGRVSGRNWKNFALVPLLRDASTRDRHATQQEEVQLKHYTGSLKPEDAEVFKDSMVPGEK
smiles,measurement,setting,value
"C=C(C)[C@@]12C[C@@H](C)[C@@]34OC(Cc5ccccc5)(O[C@@H]1[C@@H]3C=C(COC(=O)Cc1ccccc1F)C[C@]1(O)C(=O)C(C)=C[C@@H]41)O2 [Compound 4, 2-Fluoro analogue]",Ki,[1],0.73 nM
"C=C(C)[C@@]12C[C@@H](C)[C@@]34OC(Cc5ccccc5)(O[C@@H]1[C@@H]3C=C(COC(=O)Cc1ccc(NS(C)(=O)=O)c(F)c1)C[C@]1(O)C(=O)C(C)=C[C@@H]41)O2 [Compound 2, 3-Fluoro-4-(methylsulfonylamino) analogue]",decrease in agonism on replacing or removing the 3-methoxy group of compound 1,[2],9 fold
"C=C(C)[C@@]12C[C@@H](C)[C@@]34OC(Cc5ccccc5)(O[C@@H]1[C@@H]3C=C(CNC(=O)Cc1ccc(NS(C)(=O)=O)cc1)C[C@]1(O)C(=O)C(C)=C[C@@H]41)O2 [Compound 14, Amide analogue]","drop in binding, amide versus ester compound 3",[1]; compared to compound 3,50 fold
same,"drop in agonism, amide versus ester compound 3",[2]; compared to compound 3,210 fold
C=C(C)[C@]12C[C@@H](C)[C@@]34O[C@](Cc5ccccc5)(O[C@@H]1[C@@H]3C=C(COC(=O)Cc1ccc(O)cc1)C[C@]1(O)C(=O)C(C)=C[C@@H]41)O2 [tinyatoxin],decrease in binding potency compared to RTX,[3],3 fold
same,loss of biological potency compared to RTX,[4],6 fold
"C=C(C)[C@@]12C[C@@H](C)[C@@]34OC(Cc5ccccc5)(O[C@@H]1[C@@H]3C=C(COC(=O)Cc1ccc(F)cc1F)C[C@]1(O)C(=O)C(C)=C[C@@H]41)O2 [Compound 8, 2,4-Difluoro analogue]",relative agonism compared to RTX,[2]; compared to RTX,0.15
"C=C(C)[C@]12C[C@@H](C)[C@@]34O[C@](Cc5ccccc5)(O[C@@H]1[C@@H]3C=C(COC(=O)Cc1ccc(O)c(OC)c1)C[C@]1(O)C(=O)C(C)=C[C@@H]41)O2 [RTX, Resiniferatoxin]",greater potency than the prototypic agonist capsaicin,[5],10^3- to 10^4 fold
"C=C(C)[C@@]12C[C@@H](C)[C@@]34OC(Cc5ccccc5)(O[C@@H]1[C@@H]3C=C(COC(=O)Cc1cc(F)ccc1F)C[C@]1(O)C(=O)C(C)=C[C@@H]41)O2 [Compound 9, 2,5-Difluoro analogue]",relative affinity compared to RTX,[1]; compared to RTX,0.1
"C=C(C)[C@@]12C[C@@H](C)[C@@]34OC(Cc5ccccc5)(O[C@@H]1[C@@H]3C=C(COC(=O)Cc1ccc(NS(C)(=O)=O)cc1)C[C@]1(O)C(=O)C(C)=C[C@@H]41)O2 [Compound 3, 4-(Methylsulfonylamino) analogue]",decrease in agonism on replacing or removing the 3-methoxy group of compound 1,[2],7 fold
"C=C(C)[C@@]12C[C@@H](C)[C@@]34OC(Cc5ccccc5)(O[C@@H]1[C@@H]3C=C(COC(=O)Cc1ccc(NS(C)(=O)=O)c(OC)c1)C[C@]1(O)C(=O)C(C)=C[C@@H]41)O2 [Compound 1, 3-Methoxy-4-(methylsulfonylamino) analogue]",reduction in binding affinity compared to RTX,[1],5 fold
same,enhancement of functional activity (agonism) compared to RTX,[2],2.5 fold
